Source: publication PMC7105820, “Mutant ACVR1 Arrests Glial Cell Differentiation to Drive Tumorigenesis in Pediatric Gliomas” (Cancer Cell, 2020)

Molecular target: T1, ACVR1 (Homo sapiens, UniProt Q04771)
T1 sequence (Q04771 21-509): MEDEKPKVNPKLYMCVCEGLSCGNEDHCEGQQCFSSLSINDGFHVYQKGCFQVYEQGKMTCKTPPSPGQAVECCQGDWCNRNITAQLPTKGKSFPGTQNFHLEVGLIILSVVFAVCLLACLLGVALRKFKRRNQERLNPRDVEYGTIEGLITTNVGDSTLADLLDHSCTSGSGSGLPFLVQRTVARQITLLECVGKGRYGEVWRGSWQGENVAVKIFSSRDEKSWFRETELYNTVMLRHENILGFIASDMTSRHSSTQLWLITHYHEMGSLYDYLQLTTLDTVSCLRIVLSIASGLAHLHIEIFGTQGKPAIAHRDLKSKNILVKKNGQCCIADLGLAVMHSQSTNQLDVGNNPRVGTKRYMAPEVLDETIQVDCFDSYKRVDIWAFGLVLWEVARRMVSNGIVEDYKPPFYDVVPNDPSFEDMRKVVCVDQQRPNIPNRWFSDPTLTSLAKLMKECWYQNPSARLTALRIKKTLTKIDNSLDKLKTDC
Test: ([…] Å) of the ACVR1-FKBP12 complex; IC50 from cellular NanoBRET target engagement (HEK-293)
Format: cell-based

For CCNc1cc(O)c2c(c1)/C=C/C[C@H](O)[C@H](O)C(=O)/C=C\[C@@H](C)[C@H](C)OC2=O [E6201, (3S,4R,5Z,8S,9S,11E)-14-(ethylamino)-8,9,16-trihydroxy-3,4-dimethyl-3,4,9,19-tetrahydro-1H-2-benzoxacyclotetradecine-1,7 (8H)-dione], the IC50 was ~250 nM.
